“And” between values parts separate entries of the source, which are not always exact repeats. Identical values can stand only once. Like-named read-outs stand apart in the source and are kept apart here. Numbered stars: 1 amine (or outer) side, 2 acyl side, 3 side chain; on linkers, the order of the positions; unused ones are H or OH. Bridge positions count the residues as written; N and C are the ends. Square brackets hold non-standard residues; d marks the D form. Peptide text beside a SMILES is read from it. * marks the point of attachment. Orn(4R-OH,5R-OCH2CH2NMe3+) = C[N+](C)(C)CCO[C@@H](N[*:3])[C@H](O)C[C@H](N[*:1])C(=O)[*:2]; pTerphenylCO(4''-OnC5H11) = CCCCCOc1ccc(-c2ccc(-c3ccc(C(=O)*)cc3)cc2)cc1; hTyr(3S-OH,4S-OH) = N[C@H](C(=O)O)[C@H](O)[C@@H](O)c1ccc(O)cc1; Pro(3S-OH,4S-Me) = C[C@H]1CN[C@H](C(=O)O)[C@H]1O; Hyp = O=C(O)[C@@H]1C[C@@H](O)CN1
Experiments:
[1] = system: hepatocytes of Sprague-Dawdley rats; settings: supratherapeutic (comparable) doses, 2-week repeated-dose study; cited from earlier work
Excerpt: The echinocandin CD101 is a novel antifungal agent with activity against Aspergillus and Candida species, including azole- and echinocandin-resistant isolates ([1], [2]). This compound is a structural analog of anidulafungin but differs in certain beneficial ways with regard to toxicological and pharmacokinetic properties.

[2] = cited from earlier work
Candida albicans R303 [3] = test: Broth microdilution susceptibility testing (CLSI M27-A3); assay type: cell-based; settings: C. albicans R303, CLSI M27-A3, RPMI 1640, 35°C, read at 24 h, ~50% growth inhibition, modal value of three occasions
Procedure: CD101 was supplied by Cidara Therapeutics, Inc. (San Diego, CA). Stock solutions of CD101 were prepared in dimethyl sulfoxide (DMSO) for the susceptibility testing. The vehicle used for dosing in the in vivo studies was 10% DMSO–1% Tween 20–saline solution. The challenge isolate utilized in these studies was Candida albicans R303. Susceptibility testing was done in accordance with the Clinical and Laboratory Standards Institute (CLSI) M27-A3 methods, using RPMI 1640 medium, an initial inoculum of 0.5 × 10^3 to 2.5 × 10^3 CFU/ml, and incubation at 35°C ([20]). MIC plates were read following 24 h of incubation, and MIC values are reported as concentrations resulting in prominent (∼50%) growth inhibition. Susceptibility testing was performed on three separate occasions. Final results were expressed as modal values. Quality control was performed on each day of testing using CLSI-recommended reference strains (C. krusei ATCC 6258 and C. parapsilosis ATCC 22019).

[4] = Single-dose i.p. pharmacokinetic study in mice, plasma, four-compartment model; assay type: in vivo, ICR mice; settings: for maximum plasma concentration: female ICR mice, at first sampling (1 h), LC-MS/MS
Procedure: A four-compartment model best described the disposition of this agent in murine plasma. […] The coefficient of determination (r^2) for the model-predicted concentrations versus observed concentrations was 0.97. […] All model parameters were estimated with excellent precision, as indicated by a standard error of the mean (SEM) of less than 20% for 7 of 8 of the model parameters.
Healthy female ICR mice weighing 20 to 24 g were administered a single dose of CD101 via intraperitoneal (i.p.) injection. Doses of 1, 4, and 16 mg/kg of body weight were studied, utilizing 3 animals per dose level. Whole-blood samples (one sample per animal) were collected at 1, 3, 6, 12, 24, 48, 72, and 96 h postdose. Plasma was collected by centrifugation, and samples were stored at −20°C or below. Samples were analyzed using liquid chromatography with tandem mass spectrometry detection and an AB-SCIEX API 4000 mass spectrometry system. The method used in the analysis was qualified as fit for the purpose: calibration standards were matrix matched, and, for each analytical batch, triplicate calibration standards were included at the beginning of the batch, approximately in the middle, and at the end. Following analysis, quantitation is carried out by a calibration curve comprising analyte/internal standard area ratio versus concentration. Calibration standards ranged from 0.5 mg/liter (lower limit of quantitation [LLOQ]) to 100 mg/liter. Analytical batch acceptance followed the general guidance criterion that standards/quality control should be within ±20% for accuracy (percent nominal concentration) and ≤20% for precision (percent coefficient of variation). For analysis, plasma samples were quenched with acetonitrile (4:1 acetonitrile/plasma ratio) containing diclofenac as the internal standard. Animals were maintained in accordance with the criteria of the American Association for Assessment and Accreditation of Laboratory Animal Care (AAALAC). The pharmacokinetic study was approved by the Animal Research Committee of the William S. Middleton Memorial Veterans Affairs Hospital and the University of Wisconsin.
(§1) Data collected from the pharmacokinetic study described above were used to develop a pharmacokinetic model describing the disposition of CD101 in mice in S-ADAPT ([21]). The developed pharmacokinetic model, along with the unbound CD101 fraction, was used to simulate free-drug concentration-time profiles for each dosing regimen administered in the front-loaded dose studies. Free-drug AUC0–168 values were calculated through numeric integration of CD101 free-drug concentration-time profiles. Relationships between changes in log10 CFU at 168 h and free-drug AUC0–168/MIC ratios were explored.

Candida albicans R303 [5] = test: Front-loaded dose studies, neutropenic murine disseminated candidiasis model; assay type: in vivo, ICR mice
Procedure: Fungi in the no-treatment control group grew well and reached a density of greater than 1 × 10^6 CFU/g by 48 h. The magnitudes of net change in log10 CFU from the baseline at 168 h were similar regardless of the fractionation schedule within the CD101 0.7 mg/kg and 7 mg/kg dosing groups. […] In the 7 mg/kg dose group, the magnitude of net change was greater than 2 log10 CFU reduction from the baseline at 168 h, regardless of the fractionation schedule. Conversely, results within the CD101 2 mg/kg group differed across the fractionation schedules. […] However, when this dose was front-loaded (i.e., delivered entirely on day 1), there was a greater than 2 log10 CFU reduction from the baseline at 168 h.
(§2) A neutropenic, murine, disseminated candidiasis model was used for the evaluation of the effects of the CD101 dosing regimens on efficacy. Male or female ICR mice (n = 5 per regimen and observation time) weighing 22 ± 2 g were rendered neutropenic by treatments using the injection of cyclophosphamide 4 days prior to infection (day −4) and 1 day prior to infection (day −1) at 150 and 100 mg/kg i.p., respectively. Neutropenia was sustained for the duration of the study with cyclophosphamide doses (100 mg/kg i.p.) administered every 48 h on days 1, 3, 5, and 7 after infection. Each animal was inoculated, using a lateral tail vein injection, with 1 × 10^3 CFU of Candida albicans (isolate R303). CD101 (or vehicle) was administered 24 h postinfection via i.p. injection. Mice were euthanized with CO2 at 168 h (7 days) following the start of treatment. Mice in the control group were euthanized 0, 24, and 48 h after administration of vehicle. Paired kidneys were aseptically harvested and homogenized, and serial dilutions were plated for colony counts to determine the fungal burden (measured in CFU per gram). Kidney counts were not determined in animals that expired prior to the scheduled sacrifice time. The front-loaded dose studies was performed under animal biosafety level 2 conditions in an Association for Assessment and Accreditation of Laboratory Animal Care-accredited vivarium, at Eurofins Panlabs Taiwan, Ltd., with the oversight of veterinarians to ensure compliance with the Eurofins Panlabs Institutional Animal Care and Use Committee regulations and the humane treatment of laboratory animals.

[6] = Simulated free-drug plasma concentration-time profiles of the fractionated regimens; parameters: species or system mouse; settings: mice
Procedure: (§3) Simulated free-drug plasma concentration-time profiles of the three fractionated CD101 2 mg/kg dosing regimens are shown in Fig. 4.
as §1

[7] = Observation for overt toxicity in mice of the front-loaded dose studies; assay type: in vivo, ICR mice; settings: any of the mice evaluated
Procedure: as §3
as §2, with “The front-loaded dose studies was performed under animal biosafety level 2 conditions in an Association for Assessment and Accreditation of Laboratory Animal Care-accredited vivarium, at Eurofins Panlabs Taiwan, Ltd., with the oversight of veterinarians to ensure compliance with the Eurofins Panlabs Institutional Animal Care and Use Committee regulations and the humane treatment of laboratory animals.” left out

[8] = four-compartment model, murine plasma, 1-16 mg/kg i.p.

Molecule: anidulafungin [reference compound]
- hepatocyte findings [1]: hepatocellular necrosis ranging from mild to moderate

Molecule: oritavancin [reference compound]
- terminal half-life [2]: ~245 h

Molecule: CCCCCOc1ccc(-c2ccc(-c3ccc(C(=O)N[C@H]4C[C@@H](O)[C@@H](OCC[N+](C)(C)C)NC(=O)[C@@H]5[C@@H](O)[C@@H](C)CN5C(=O)[C@H]([C@@H](C)O)NC(=O)[C@H]([C@H](O)[C@@H](O)c5ccc(O)cc5)NC(=O)[C@@H]5C[C@@H](O)CN5C(=O)[C@H]([C@@H](C)O)NC4=O)cc3)cc2)cc1 [CD101] ({pTerphenylCO(4''-OnC5H11)}-[Orn(4R-OH,5R-OCH2CH2NMe3+)]T[Hyp][hTyr(3S-OH,4S-OH)]T[Pro(3S-OH,4S-Me)]; lactam 1-C)
- modal MIC (Candida albicans R303 [3]): 0.125 µg/mL
- maximum plasma concentration ([4]; 1 mg/kg i.p. single dose): 3.97 mg/L
- maximum plasma concentration ([4]; 4 mg/kg i.p. single dose): 13.6 mg/L
- maximum plasma concentration ([4]; 16 mg/kg i.p. single dose): 52.0 mg/L
- pharmacokinetics over the studied dose range ([4]; 1 to 16 mg/kg i.p., mice): linear pharmacokinetics
- Q2 (distributional clearance), final estimate [4, 8]: 0.255 mL/min/kg
- Q3 (distributional clearance), final estimate [4, 8]: 5.2 mL/min/kg
- Q4 (distributional clearance), final estimate [4, 8]: 1.2 mL/min/kg
- V1 (central compartment volume), final estimate [4, 8]: 0.201 L/kg
- V2 (peripheral compartment volume), final estimate [4, 8]: 0.871 L/kg
- V3 (peripheral compartment volume), final estimate [4, 8]: 0.0341 L/kg
- V4 (peripheral compartment volume), final estimate [4, 8]: 0.165 L/kg
- CL/F ([4]; mouse, in vivo, ip, four-compartment model, murine plasma, 1-16 mg/kg i.p., read-out: CLt (total clearance), final estimate (converted)): 0.173 mL/min/kg
- log10 CFU reduction from the baseline at 168 h (Candida albicans R303 [5]; total 2 mg/kg as single dose (2 mg/kg x 1), kidney burden, neutropenic ICR mice, n = 5): > 2 log10 CFU and 2 log10 CFU
- log10 CFU increase from the baseline at 168 h (Candida albicans R303 [5]; total 2 mg/kg daily (0.29 mg/kg/day x 7), kidney burden, neutropenic ICR mice, n = 5): > 1 log10 CFU and 1 log10 CFU
- net change in log10 CFU from the baseline at 168 h (Candida albicans R303 [5]; total 2 mg/kg twice weekly (1 mg/kg x 2), kidney burden, neutropenic ICR mice, n = 5): net fungal stasis
- log10 CFU reduction from the baseline at 168 h (Candida albicans R303 [5]; total 7 mg/kg i.p., regardless of the fractionation schedule): greater than 2 log10 CFU
- free-drug AUC0-24 of single-dose regimen relative to daily regimen ([6]; 2 mg/kg total dose): 7 fold
- AUC0-168 of daily 1 mg/kg regimen relative to 2 mg/kg front-loaded regimen [6]: approximately 3 fold
- overt signs of toxicities [7]: No overt signs of toxicities
- terminal half-life ([2]; humans, healthy volunteers): ~133 h
- hepatocyte findings [1]: no changes were observed

From publication PMC5655053, “Pharmacological Basis of CD101 Efficacy: Exposure Shape Matters” (Antimicrobial Agents and Chemotherapy, 2017)
